Numbered stars: 1 amine (or outer) side, 2 acyl side, 3 side chain; on linkers, the order of the positions; unused ones are H or OH. Peptide text beside a SMILES is read from it. Suc = O=C(CCC(=O)[*:2])[*:1]
What was measured:
[1] = Binding affinity to HIV1 HXB3 RRE66 RNA; set-up: species or system Human immunodeficiency virus 1
[2] = Binding affinity to HIV1 wild type [32P]-labeled RRE-2B RNA after 30 mins by electrophoretic mobility shift assay; set-up: species or system Human immunodeficiency virus 1

| Kd [1] [nM] | SMILES | Kd [2] [nM] |
| --- | --- | --- |
| 2.4 | NCC1O[C@H](O[C@H]2[C@@H](O)[C@H](O[C@@H]3[C@@H](O)[C@H](N)C[C@H](N)[C@H]3O[C@H]3O[C@H](CN)[C@@H](O)[C@H](O)[C@H]3N)O[C@@H]2CNc2c3ccccc3nc3ccccc23)[C@H](N)[C@@H](O)[C@@H]1O (some centres not stated) | – |
| – | C[C@H](NC(=O)[C@H](C)NC(=O)[C@H](C)NC(=O)[C@H](CCCNC(=N)N)NC(=O)[C@H](CCC(N)=O)NC(=O)[C@H](CCCNC(=N)N)NC(=O)[C@H](CCC(=O)O)NC(=O)[C@H](CCCNC(=N)N)NC(=O)[C@H](Cc1c[nH]c2ccccc12)NC(=O)[C@H](CCCNC(=N)N)NC(=O)[C@H](CCCNC(=N)N)NC(=O)[C@H](CCCNC(=N)N)NC(=O)[C@H](CCCNC(=N)N)NC(=O)[C@H](CC(N)=O)NC(=O)[C@H](CCCNC(=N)N)NC(=O)[C@H](CCCNC(=N)N)NC(=O)[C@H](C)NC(=O)[C@H](CCC(N)=O)NC(=O)[C@H](CCCNC(=N)N)NC(=O)[C@@H](NC(=O)CCC(=O)O)[C@@H](C)O)C(=O)N[C@@H](C)C(=O)N[C@@H](CCCNC(=N)N)C(=O)O (Suc-TRQARRNRRRRWRERQRAAAAR-OH) | 100 |
